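All cell lines were grown in 96-well plates and treated with compound for 48 hours. Here, GI50 denotes the concentration required for 50% inhibition of growth.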 Activity calls are given as the source filed them. Rule as the data show it: active = GI50 up to about 1.1 µM and inactive = higher.
How the values were obtained:
Assay in all cases: NCI anticancer screen, dose series, 48 h
MDA-N = tested on: MDA-N
EKVX = tested on: EKVX
CAKI-1 = tested on: CAKI-1
MOLT-4 = tested on: MOLT-4
HCT-15 = tested on: HCT-15
PC-3 = tested on: PC-3
OVCAR-4 = tested on: OVCAR-4
SK-MEL-28 = tested on: SK-MEL-28
HL-60 = tested on: HL-60
LOX IMVI = tested on: LOX IMVI
SN12C = tested on: SN12C
SF-268 = tested on: SF-268
SK-OV-3 = tested on: SK-OV-3
HOP-92 = tested on: HOP-92
RPMI-8226 = tested on: RPMI-8226
ACHN = tested on: ACHN
786-0 = tested on: 786-0
RXF 393 = tested on: RXF 393
MDA-MB-231 = tested on: MDA-MB-231
A498 = tested on: A498

| Compound | GI50 (MDA-N) | GI50 (EKVX) | GI50 (CAKI-1) | GI50 (MOLT-4) | GI50 (HCT-15) [µM] | GI50 (PC-3) | GI50 (OVCAR-4) | GI50 (SK-MEL-28) | GI50 (HL-60) | GI50 (LOX IMVI) | GI50 (SN12C) | GI50 (SF-268) | GI50 (SK-OV-3) | GI50 (HOP-92) | GI50 (RPMI-8226) | GI50 (ACHN) | GI50 (786-0) | GI50 (RXF 393) | GI50 (MDA-MB-231) | GI50 (A498) |
| --- | --- | --- | --- | --- | --- | --- | --- | --- | --- | --- | --- | --- | --- | --- | --- | --- | --- | --- | --- | --- |
| Cn1c2ccc(C3=NCCN3)cc2c2cc(C3=NCCN3)ccc21 | 53.1 µM (inactive) | 17 µM (inactive) | > 100 µM (inactive) | 0.637 µM (active) | > 100 | 34.3 µM (inactive) | 13.6 µM (inactive) | 24 µM (inactive) | < 0.01 µM (active) | 49.4 µM (inactive) | 6.31 µM (inactive) | 0.0463 µM (active) | 44.1 µM (inactive) | 13.4 µM (inactive) | 24.6 µM (inactive) | 37.9 µM (inactive) | 38.7 µM (inactive) | 34.3 µM (inactive) | 41.2 µM (inactive) | > 100 µM (inactive) |
| C[C@]12CC[C@@H]3c4ccc(OCC(=O)O)cc4CC[C@H]3[C@@H]1CCC2=O | > 100 µM (inactive) | > 100 µM (inactive) | > 100 µM (inactive) | 15.1 µM (inactive) | > 100 | > 100 µM (inactive) | > 100 µM (inactive) | > 100 µM (inactive) | 0.13 µM (active) | > 100 µM (inactive) | > 100 µM (inactive) | > 100 µM (inactive) | > 100 µM (inactive) | > 100 µM (inactive) | > 100 µM (inactive) | > 100 µM (inactive) | > 100 µM (inactive) | > 100 µM (inactive) | > 100 µM (inactive) | > 100 µM (inactive) |
| C=C(CN(C)C)C(=O)c1ccccc1OC | 18.2 µM (inactive) | 25.8 µM (inactive) | 9.82 µM (inactive) | 2.46 µM (inactive) | 15.9 | 17.5 µM (inactive) | 20.6 µM (inactive) | 20.2 µM (inactive) | 3.23 µM (inactive) | 13.8 µM (inactive) | 18.9 µM (inactive) | 25.2 µM (inactive) | 47.5 µM (inactive) | 14.7 µM (inactive) | 5.28 µM (inactive) | 14.5 µM (inactive) | 13.9 µM (inactive) | 7.85 µM (inactive) | 14.4 µM (inactive) | 28.4 µM (inactive) |
| Nc1ccc2c(=O)cc(-c3cccs3)[nH]c2n1 | 0.223 µM (active) | 6.5 µM (inactive) | 6.67 µM (inactive) | 1.51 µM (inactive) | 1.29 | 1.74 µM (inactive) | > 35.7 µM (inactive) | 4.32 µM (inactive) | 0.234 µM (active) | 1.07 µM (active) | 5.16 µM (inactive) | 8.93 µM (inactive) | 5.25 µM (inactive) | 9.1 µM (inactive) | 1.54 µM (inactive) | 11.7 µM (inactive) | 3.45 µM (inactive) | 4.17 µM (inactive) | 11.8 µM (inactive) | > 37.8 µM (inactive) |
| O=[N+]([O-])c1cc(F)ccc1S(=O)(=O)c1ccccc1 | > 10 µM (inactive) | 5.14 µM (inactive) | > 10 µM (inactive) | > 10 µM (inactive) | > 10 | > 10 µM (inactive) | > 10 µM (inactive) | > 10 µM (inactive) | > 10 µM (inactive) | > 10 µM (inactive) | > 10 µM (inactive) | > 10 µM (inactive) | > 10 µM (inactive) | > 10 µM (inactive) | > 10 µM (inactive) | > 10 µM (inactive) | > 10 µM (inactive) | > 10 µM (inactive) | > 10 µM (inactive) | > 10 µM (inactive) |
| C=C[C@]1(C)CC(O)C2C(=C)C(=O)OC2[C@H]1C(=C)C=O (stereo not given in full) | 3.92 µM (inactive) | 15 µM (inactive) | 4.35 µM (inactive) | 2 µM (inactive) | 2.06 | 2.87 µM (inactive) | 7.93 µM (inactive) | 1.3 µM (inactive) | 0.893 µM (active) | 1.01 µM (active) | 2.37 µM (inactive) | 3.95 µM (inactive) | 25.8 µM (inactive) | 2.61 µM (inactive) | 0.859 µM (active) | 2.36 µM (inactive) | 1.91 µM (inactive) | 2.07 µM (inactive) | 3.1 µM (inactive) | 4.42 µM (inactive) |
| CC(=O)OC(C)(C)/C=C/C(=O)[C@](C)(O)[C@H]1[C@H](O)C[C@@]2(C)[C@@H]3CC=C4[C@@H](C=C(O)C(=O)C4(C)C)[C@]3(C)C(=O)C[C@]12C [CUCURBITACIN E] | 0.0518 µM (active) | 0.118 µM (active) | 0.0216 µM (active) | 0.246 µM (active) | 0.0278 | 0.259 µM (active) | 0.0305 µM (active) | 0.024 µM (active) | 0.0313 µM (active) | 0.0101 µM (active) | 0.0394 µM (active) | 0.0275 µM (active) | 0.0436 µM (active) | 0.0302 µM (active) | 0.041 µM (active) | 0.0179 µM (active) | 0.0339 µM (active) | 0.0177 µM (active) | 0.0537 µM (active) | 0.0247 µM (active) |
| O=P(O)(NCCCl)NCCCl [PALIFOSFAMIDE] | > 100 µM (inactive) | > 10 µM (inactive) | 39.8 µM (inactive) | 60.3 µM (inactive) | > 10 | > 100 µM (inactive) | > 100 µM (inactive) | > 100 µM (inactive) | > 51.3 µM (inactive) | 29.9 µM (inactive) | 63 µM (inactive) | 57.8 µM (inactive) | > 55.8 µM (inactive) | > 100 µM (inactive) | > 89.5 µM (inactive) | 39.3 µM (inactive) | > 67.8 µM (inactive) | > 10 µM (inactive) | > 100 µM (inactive) | > 100 µM (inactive) |

Reference: ChEMBL document CHEMBL1201862, “PubChem BioAssay data set” (2004)
